Patent US10703748B2, “Diazanaphthalen-3-yl carboxamides and preparation and use thereof” (Samumed, LLC, priority 2017, dated 2020)

Assays:
[1] = test system: α-smooth muscle actin (aSMA) positive LL29 cells; assay: Inhibition of the fibrotic process: αSMA staining in TGF-β1 treated LL29 fibroblasts from IPF patients; settings: Homo sapiens, Fibroblast; for EC50: 96 h; for inhibition at 10 µM: read-out: percentage in parentheses after EC50 >10
[2] = test system: SW480 colon carcinoma cells; assay: Cell viability assay (CellTiter-Glo); settings: Homo sapiens; for EC50: SW480, 96 h; for inhibition at 10 µM: SW480, read-out: percent inhibition at 10 μM
GSK3β kinase = GSK3β kinase (Homo sapiens, UniProt P49841); assay: GSK3β kinase activity (Ser/Thr 09 peptide Z-lyte FRET assay); format: biochemical; settings: recombinant kinase, 46 μM ATP, one hour at room temperature; read-out: EC50
Chain of GSK3β kinase (P49841 whole entry): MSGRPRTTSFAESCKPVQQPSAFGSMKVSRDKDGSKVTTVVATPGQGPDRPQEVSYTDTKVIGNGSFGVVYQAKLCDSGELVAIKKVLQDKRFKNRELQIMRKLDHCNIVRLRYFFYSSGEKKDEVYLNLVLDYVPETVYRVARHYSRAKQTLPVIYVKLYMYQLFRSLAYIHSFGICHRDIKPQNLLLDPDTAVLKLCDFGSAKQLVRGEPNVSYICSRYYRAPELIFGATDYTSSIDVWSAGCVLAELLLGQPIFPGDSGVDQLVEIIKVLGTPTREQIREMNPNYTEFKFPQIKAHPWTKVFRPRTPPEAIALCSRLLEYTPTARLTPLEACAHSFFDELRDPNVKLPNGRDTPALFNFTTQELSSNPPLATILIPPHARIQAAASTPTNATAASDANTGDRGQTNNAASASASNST

[3] = test system: Wnt-responsive Sp5-Luc reporter in SW480 colon carcinoma cells; assay: Screening assay for Wnt activity (Sp5-Luc reporter gene assay); settings: Homo sapiens; for EC50: SW480; for inhibition at 10 µM: SW480, read-out: percent inhibition at 10 μM
IL-6 = IL-6 inhibition in LPS-stimulated human peripheral blood mononuclear cells (HTRF); settings: Homo sapiens, PBMC; for EC50: 22 h; for inhibition at 10 µM: read-out: percentage in parentheses after EC50 >10
DYRK1A kinase = DYRK1A kinase (Homo sapiens, UniProt Q13627); assay: DYRK1A kinase activity (Ser/Thr 18 peptide Z-lyte FRET assay); format: biochemical; settings: recombinant DYRK1A, 30 μM ATP, one hour at room temperature;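 further: kinase activity read as coumarin/fluorescein emission ratio after development step, with unphosphorylated and phosphorylated peptide forms setting 0% and 100% controls, values from dose-response curves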
[4] = test system: secreted cytokines TNFα, IL-6 and KC-GRO; assay: Secreted cytokines in Lipopolysaccharide-stimulated BV-2 cells (Table 9 does not say which cytokine); format: cell-based, mouse; settings: Mus musculus, BV-2, 5 h; read-out: EC50
[5] = test system: Tau phosphorylation at Ser396 (pSer396); assay: Tau phosphorylation at Ser396 (pSer396) in SH-SY5Y cells, ELISA / western blot; format: cell-based, human; settings: Homo sapiens; SH-SY5Y cells, overnight (16-18 h); read-out: pSer396 Tau EC50;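 further: decrease in pSer396 Tau measured in lysates of treated cells by colorimetric ELISA or chemiluminescent western blot, same pSer396 antibody for both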
Procedure: Two days before treatment, cells were seeded onto 96 well plates at 5×10^4 cells/well.
The above synthesized compounds were screened using the cell assay procedure to assess decrease Tau phosphorylation at Ser396 (pSer396) described below.
Cells were lysed with RIPA buffer complemented with phosphatase and protease inhibitors then lysates were spun down at 12,000 g for 10 min to remove any cellular debris.

Structure (SMILES) | EC50 [1] [nM] | EC50 [2] [µM] | EC50 (GSK3β kinase) [nM] | EC50 [3] [nM] | EC50 (IL-6) [µM] | inhibition at 10 µM (IL-6) [%] | EC50 (DYRK1A kinase) [nM] | EC50 [4] [nM] | EC50 [5] [nM] | inhibition at 10 µM [1] [%] | inhibition at 10 µM [2] [%] | inhibition at 10 µM [3] [%]
CN1CCN(Cc2cccc(C(=O)Nc3cc4cc(-c5cnn(C)c5)ncc4cn3)c2)CC1 [Compound 3799, N-(6-(1-Methyl-1H-pyrazol-4-yl)-2,7-naphthyridin-3-yl)-3-((4-methylpiperazin-1-yl)methyl)benzamide] | 2580 | 3.66 | 243 | 2120 | > 10 | 5.3 | 12 | 79 | 3640 | – | – | –
Cn1cc(-c2cc3cc(NC(=O)CCc4ccccc4)ncc3cn2)cn1 [Compound 3821, N-(6-(1-Methyl-1H-pyrazol-4-yl)-2,7-naphthyridin-3-yl)-3-phenylpropanamide] | 313 | 0.231 | 1 | 176 | 8.41 | – | 7 | 244 | 29 | – | – | –
Cn1ncc(-c2cc3cc(NC(=O)C4CC5(C4)CN(CCF)C5)ncc3cn2)c1CN1CCCCC1 [Compound 3907, 2-(2-Fluoroethyl)-N-(6-(1-methyl-5-(piperidin-1-ylmethyl)-1H-pyrazol-4-yl)-2,7-naphthyridin-3-yl)-2-azaspiro[3.3]heptane-6-carboxamide] | 1820 | 1.29 | 39 | 361 | 8.81 | – | 48 | 4700 | 367 | – | – | –
O=C(Nc1cc2cc(-c3cnn4c3CN(CCF)CC4)ncc2cn1)C1CCC(F)(F)CC1 [Compound 3944, 4,4-Difluoro-N-(6-(5-(2-fluoroethyl)-4,5,6,7-tetrahydropyrazolo[1,5-a]pyrazin-3-yl)-2,7-naphthyridin-3-yl)cyclohexane-1-carboxamide] | 416 | 7.29 | 18 | 962 | > 10 | 22.2 | 6 | 471 | 428 | – | – | –
Cn1cncc1-c1cc2cc(NC(=O)C3CCC(F)(F)CC3)ncc2cn1 [Compound 4027, 4,4-Difluoro-N-(6-(1-methyl-1H-imidazol-5-yl)-2,7-naphthyridin-3-yl) cyclohexane-1-carboxamide] | > 10000 | > 10 | 72 | > 10000 | > 10 | 4 | 21 | ≥ 10000 | 219 | 33.9 | 26.3 | 17.5
CC(C(=O)Nc1cc2cc(-c3cncn3C)ncc2cn1)N1CCCC1 (centres unmarked) [Compound 4041, N-(6-(1-Methyl-1H-imidazol-5-yl)-2,7-naphthyridin-3-yl)-2-(pyrrolidin-1-yl) propanamide] | 3490 | 4.54 | 19 | 291 | > 10 | 0 | 630 | 3900 | 102 | – | – | –
Cn1cncc1-c1cc2cc(NC(=O)c3ccc4c(c3)CNC4)ncc2cn1 [Compound 4104, N-(6-(1-Methyl-1H-imidazol-5-yl)-2,7-naphthyridin-3-yl)isoindoline-5-carboxamide] | 3080 | 7.75 | 145 | > 10000 | > 10 | 5.7 | 3 | 1200 | 10000 | – | – | 41.3
O=C(Nc1cc2cc(-c3cnco3)ncc2cn1)C1CCN(C(=O)CN2CCCC2)CC1 [Compound 4159, N-(6-(Oxazol-5-yl)-2,7-naphthyridin-3-yl)-1-(2-(pyrrolidin-1-yl)acetyl) piperidine-4-carboxamide] | 347 | 8.44 | 72 | 972 | > 10 | 10.1 | 4 | 859 | 989 | – | – | –
CN(C)[C@H]1CC[C@H](C(=O)Nc2cc3cc(-c4cncs4)ncc3cn2)CC1 [Compound 4239, trans-4-(dimethylamino)-N-(6-(thiazol-5-yl)-2,7-naphthyridin-3-yl) cyclohexane-1-carboxamide] | > 10000 | > 10 | 187 | > 10000 | > 10 | 10.5 | 5 | 1700 | 491 | 50 | 27.6 | 41.9
CN1CCC(C(=O)Nc2cc3cc(-c4cnsc4)ncc3cn2)CC1 [Compound 4319, N-(6-(Isothiazol-4-yl)-2,7-naphthyridin-3-yl)-1-methylpiperidine-4-carboxamide] | 1630 | > 10 | 199 | 1520 | > 10 | 11.4 | 39 | 516 | 553 | – | 43 | –
O=C(Nc1cc2cc(-c3cncc(NC4CCNCC4)n3)ncc2cn1)C1CCOCC1 [Compound 4504, N-(6-(6-(Piperidin-4-ylamino)pyrazin-2-yl)-2,7-naphthyridin-3-yl) tetrahydro-2H-pyran-4-carboxamide] | 384 | > 10 | 77 | 3640 | > 10 | 7.3 | 4 | 524 | 10000 | – | 47.9 | –
Cn1cc(-c2ccc3cnc(NC(=O)[C@H]4CC[C@H](NCCF)CC4)cc3n2)cn1 [Compound 4535, trans-4-((2-Fluoroethyl)amino)-N-(2-(1-methyl-1H-pyrazol-4-yl)-1,6-naphthyridin-7-yl) cyclohexane-1-carboxamide] | > 10000 | 4.05 | 188 | 346 | 2.85 | – | 9 | 162 | 925 | 25 | – | –
COCCN[C@H]1CC[C@H](C(=O)Nc2cc3nc(-c4cnn(C)c4)ccc3cn2)CC1 [Compound 4536, trans-4-((2-Methoxyethyl)amino)-N-(2-(1-methyl-1H-pyrazol-4-yl)-1,6-naphthyridin-7-yl) cyclohexane-1-carboxamide] | 1140 | > 10 | 319 | 832 | 3.02 | – | 14 | 89 | > 10000 | – | 45.9 | –
Cc1ncc(-c2ccc3cnc(NC(=O)C(C)N4CCCC4)cc3n2)n1C (centres unmarked) [Compound 4544, N-(2-(1,2-Dimethyl-1H-imidazol-5-yl)-1,6-naphthyridin-7-yl)-2-(pyrrolidin-1-yl)propanamide] | 1090 | 5.61 | 18 | 59 | 7.77 | – | 33 | 353 | 76 | – | – | –
Cc1ncc(-c2ccc3cnc(NC(=O)[C@H]4CC[C@H](CO)CC4)cc3n2)s1 [Compound 4558, trans-4-(Hydroxymethyl)-N-(2-(2-methylthiazol-5-yl)-1,6-naphthyridin-7-yl) cyclohexane-1-carboxamide] | 277 | 5.8 | 100 | 2800 | 9.23 | – | 4 | 165 | 7000 | – | – | –
